Each structure is given as a SMILES string. A value given as a limit tells only on which side of the number the result lay.

The target in the test is truncated PI3Kα (p110α/iSH2 p85α) (Homo sapiens (Human), UniProt P42336). Nature of the test: PI3KA_Act fluorescence polarization kinase assay (Ki). The format is biochemical. The note with it: 1 mM ATP. In a few lines: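 Ki values result from fitting fluorescence polarization signals to the Morrison equation for tight-binding competitive inhibitors. The detector was GST-Grp1 PH domain with TAMRA-PIP3, read after a 30 min room-temperature reaction of 0.5 nM truncated PI3Kα and 30 μM PIP2 at pH 7.4 in HEPES/NaCl/MgCl2/DTT/CHAPS buffer. Compounds were tested as 12-point 3-fold dilutions from 3 μM.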
truncated PI3Kα (p110α/iSH2 p85α), sequence (P42336 whole entry, the tested form may be a part): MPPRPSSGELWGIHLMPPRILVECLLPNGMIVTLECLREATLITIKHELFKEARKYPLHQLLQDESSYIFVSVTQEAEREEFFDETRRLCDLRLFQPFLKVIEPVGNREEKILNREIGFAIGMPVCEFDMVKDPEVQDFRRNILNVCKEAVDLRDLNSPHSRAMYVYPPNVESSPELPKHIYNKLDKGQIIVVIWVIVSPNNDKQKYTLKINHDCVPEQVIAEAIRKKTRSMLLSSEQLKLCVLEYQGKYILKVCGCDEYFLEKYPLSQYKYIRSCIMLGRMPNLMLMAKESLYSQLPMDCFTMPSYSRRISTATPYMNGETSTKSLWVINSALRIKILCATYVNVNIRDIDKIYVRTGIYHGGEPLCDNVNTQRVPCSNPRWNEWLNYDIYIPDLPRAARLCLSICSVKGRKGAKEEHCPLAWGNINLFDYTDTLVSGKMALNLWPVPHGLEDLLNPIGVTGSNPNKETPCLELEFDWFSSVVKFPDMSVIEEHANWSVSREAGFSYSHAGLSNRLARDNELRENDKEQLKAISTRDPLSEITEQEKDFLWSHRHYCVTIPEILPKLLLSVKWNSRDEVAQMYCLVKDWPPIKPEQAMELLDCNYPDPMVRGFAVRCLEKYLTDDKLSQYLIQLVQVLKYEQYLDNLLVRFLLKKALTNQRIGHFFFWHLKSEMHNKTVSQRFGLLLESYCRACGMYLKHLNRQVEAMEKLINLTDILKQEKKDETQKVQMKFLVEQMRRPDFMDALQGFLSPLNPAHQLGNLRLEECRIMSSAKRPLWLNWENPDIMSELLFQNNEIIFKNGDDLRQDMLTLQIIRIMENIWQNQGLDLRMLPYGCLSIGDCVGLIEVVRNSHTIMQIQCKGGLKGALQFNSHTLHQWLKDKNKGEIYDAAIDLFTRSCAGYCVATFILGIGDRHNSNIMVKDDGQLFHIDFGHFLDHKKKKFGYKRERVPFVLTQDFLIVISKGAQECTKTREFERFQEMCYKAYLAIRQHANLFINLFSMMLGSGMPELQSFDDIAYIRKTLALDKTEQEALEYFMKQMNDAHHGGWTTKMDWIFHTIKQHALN

Regarding `CCNC(=O)N1CC[C@@](C)(N2CCc3c(-c4cnc(N)nc4)nc(N4CCOCC4)nc32)C1` [Example 393, (3R)-3-[4-(2-aminopyrimidin-5-yl)-2-(morpholin-4-yl)-5,6-dihydro-7H-pyrrolo[2,3-d]pyrimidin-7-yl]-N-ethyl-3-methylpyrrolidine-1-carboxamide], the “PI3KA_Act Ki” value turned out to be 85 pM.
For the molecule `CC(C)NC(=O)N1CC[C@@](C)(N2CCc3c(-c4cnc(N)nc4)nc(N4CCOCC4)nc32)C1` [Example 394, (3R)-3-[4-(2-aminopyrimidin-5-yl)-2-(morpholin-4-yl)-5,6-dihydro-7H-pyrrolo[2,3-d]pyrimidin-7-yl]-3-methyl-N-(propan-2-yl)pyrrolidine-1-carboxamide], the “PI3KA_Act Ki” value came out at 112 pM.
With `CC(C)NC(=O)N1CC[C@](C)(N2CCc3c(-c4cnc(N)nc4)nc(N4CCOCC4)nc32)C1` [Example 395, (3S)-3-[4-(2-aminopyrimidin-5-yl)-2-(morpholin-4-yl)-5,6-dihydro-7H-pyrrolo[2,3-d]pyrimidin-7-yl]-3-methyl-N-(propan-2-yl)pyrrolidine-1-carboxamide], the “PI3KA_Act Ki” value is 352 pM.
As to `CC(C)(C)NC(=O)N1CC[C@@](C)(N2CCc3c(-c4cnc(N)nc4)nc(N4CCOCC4)nc32)C1` [Example 396, (3R)-3-[4-(2-aminopyrimidin-5-yl)-2-(morpholin-4-yl)-5,6-dihydro-7H-pyrrolo[2,3-d]pyrimidin-7-yl]-N-tert-butyl-3-methylpyrrolidine-1-carboxamide], the “PI3KA_Act Ki” value turned out to be 121 pM.
Take `CC(C)(C)NC(=O)N1CC[C@](C)(N2CCc3c(-c4cnc(N)nc4)nc(N4CCOCC4)nc32)C1` [Example 397, (3S)-3-[4-(2-aminopyrimidin-5-yl)-2-(morpholin-4-yl)-5,6-dihydro-7H-pyrrolo[2,3-d]pyrimidin-7-yl]-N-tert-butyl-3-methylpyrrolidine-1-carboxamide]: the “PI3KA_Act Ki” value was 101 pM.
Still for that read-out and setting: the result for `C[C@@]1(N2CCc3c(-c4cnc(N)nc4)nc(N4CCOCC4)nc32)CCN(CC(N)=O)C1` [Example 398, 2-{(3R)-3-[4-(2-aminopyrimidin-5-yl)-2-(morpholin-4-yl)-5,6-dihydro-7H-pyrrolo[2,3-d]pyrimidin-7-yl]-3-methylpyrrolidin-1-yl}acetamide] reads 411 pM; that for `C[C@]1(N2CCc3c(-c4cnc(N)nc4)nc(N4CCOCC4)nc32)CCN(CC(N)=O)C1` [Example 399, 2-{(3S)-3-[4-(2-aminopyrimidin-5-yl)-2-(morpholin-4-yl)-5,6-dihydro-7H-pyrrolo[2,3-d]pyrimidin-7-yl]-3-methylpyrrolidin-1-yl}acetamide], 74 pM; that for `CNC(=O)CN1CC[C@@](C)(N2CCc3c(-c4cnc(N)nc4)nc(N4CCOCC4)nc32)C1` [Example 400, 2-{(3R)-3-[4-(2-aminopyrimidin-5-yl)-2-(morpholin-4-yl)-5,6-dihydro-7H-pyrrolo[2,3-d]pyrimidin-7-yl]-3-methylpyrrolidin-1-yl}-N-methylacetamide], 781 pM.
For `CNC(=O)CN1CC[C@](C)(N2CCc3c(-c4cnc(N)nc4)nc(N4CCOCC4)nc32)C1` [Example 401, 2-{(3S)-3-[4-(2-aminopyrimidin-5-yl)-2-(morpholin-4-yl)-5,6-dihydro-7H-pyrrolo[2,3-d]pyrimidin-7-yl]-3-methylpyrrolidin-1-yl}-N-methylacetamide], the “PI3KA_Act Ki” value worked out at 109 pM.
Same read-out and setting: the result for `CN(C)C(=O)CN1CC[C@@](C)(N2CCc3c(-c4cnc(N)nc4)nc(N4CCOCC4)nc32)C1` [Example 402, 2-{(3R)-3-[4-(2-aminopyrimidin-5-yl)-2-(morpholin-4-yl)-5,6-dihydro-7H-pyrrolo[2,3-d]pyrimidin-7-yl]-3-methylpyrrolidin-1-yl}-N,N-dimethylacetamide] reads 872 pM; that for `CN(C)C(=O)CN1CC[C@](C)(N2CCc3c(-c4cnc(N)nc4)nc(N4CCOCC4)nc32)C1` [Example 403, 2-{(3S)-3-[4-(2-aminopyrimidin-5-yl)-2-(morpholin-4-yl)-5,6-dihydro-7H-pyrrolo[2,3-d]pyrimidin-7-yl]-3-methylpyrrolidin-1-yl}-N,N-dimethylacetamide], 53 pM.
The same measure, in the same setting: under `CCOC(=O)N1CC[C@@](C)(N2CCc3c(-c4cnc(N)nc4)nc(N4CCOCC4)nc32)C1` [Example 404, ethyl (3R)-3-[4-(2-aminopyrimidin-5-yl)-2-(morpholin-4-yl)-5,6-dihydro-7H-pyrrolo[2,3-d]pyrimidin-7-yl]-3-methylpyrrolidine-1-carboxylate] stands 128 pM; under `CCOC(=O)N1CC[C@](C)(N2CCc3c(-c4cnc(N)nc4)nc(N4CCOCC4)nc32)C1` [Example 405, ethyl (3S)-3-[4-(2-aminopyrimidin-5-yl)-2-(morpholin-4-yl)-5,6-dihydro-7H-pyrrolo[2,3-d]pyrimidin-7-yl]-3-methylpyrrolidine-1-carboxylate], less than 18 pM; under `CC(C)OC(=O)N1CC[C@](C)(N2CCc3c(-c4cnc(N)nc4)nc(N4CCOCC4)nc32)C1` [Example 406, propan-2-yl (3S)-3-[4-(2-aminopyrimidin-5-yl)-2-(morpholin-4-yl)-5,6-dihydro-7H-pyrrolo[2,3-d]pyrimidin-7-yl]-3-methylpyrrolidine-1-carboxylate], less than 18 pM.
As to `CC(C)OC(=O)N1CC[C@@](C)(N2CCc3c(-c4cnc(N)nc4)nc(N4CCOCC4)nc32)C1` [Example 407, propan-2-yl (3R)-3-[4-(2-aminopyrimidin-5-yl)-2-(morpholin-4-yl)-5,6-dihydro-7H-pyrrolo[2,3-d]pyrimidin-7-yl]-3-methylpyrrolidine-1-carboxylate], the “PI3KA_Act Ki” value amounted to 235 pM.
Broadly, the Ki is a dissociation constant, usually derived from enzyme kinetics or from competition with a known ligand. With `CC(C)(C)OC(=O)N1C[C@@H](N2CCc3c(-c4cnc(N)nc4)nc(N4CCOCC4)nc32)[C@@H](F)C1` [Example 408, tert-butyl (3R,4S)-3-[4-(2-aminopyrimidin-5-yl)-2-(morpholin-4-yl)-5,6-dihydro-7H-pyrrolo[2,3-d]pyrimidin-7-yl]-4-fluoropyrrolidine-1-carboxylate], the affinity, expressed as Ki, was 1080 pM.
For `CC(C)(C)OC(=O)N1C[C@@H](F)[C@@H](N2CCc3c(-c4cnc(N)nc4)nc(N4CCOCC4)nc32)C1` [Example 409, tert-butyl (3S,4R)-3-[4-(2-aminopyrimidin-5-yl)-2-(morpholin-4-yl)-5,6-dihydro-7H-pyrrolo[2,3-d]pyrimidin-7-yl]-4-fluoropyrrolidine-1-carboxylate], the “PI3KA_Act Ki” value turned out to be 168 pM.
`CC[C@@]1(N2CCc3c(-c4cnc(N)nc4)nc(N4CCOCC4)nc32)CCN(C(=O)OC(C)(C)C)C1` [Example 410, tert-butyl (3R)-3-[4-(2-aminopyrimidin-5-yl)-2-(morpholin-4-yl)-5,6-dihydro-7H-pyrrolo[2,3-d]pyrimidin-7-yl]-3-ethylpyrrolidine-1-carboxylate]: the affinity corresponds to a Ki of 262 pM.
For the molecule `CC[C@]1(N2CCc3c(-c4cnc(N)nc4)nc(N4CCOCC4)nc32)CCN(C(=O)OC(C)(C)C)C1` [Example 411, tert-butyl (3S)-3-[4-(2-aminopyrimidin-5-yl)-2-(morpholin-4-yl)-5,6-dihydro-7H-pyrrolo[2,3-d]pyrimidin-7-yl]-3-ethylpyrrolidine-1-carboxylate], the “PI3KA_Act Ki” value is less than 18 pM.
As for `CC(C)(N)COC(=O)N1CC[C@](C)(N2CCc3c(-c4cnc(N)nc4)nc(N4CCOCC4)nc32)C1.Cl` [Example 412, 2-amino-2-methylpropyl (3S)-3-[4-(2-aminopyrimidin-5-yl)-2-(morpholin-4-yl)-5,6-dihydro-7H-pyrrolo[2,3-d]pyrimidin-7-yl]-3-methylpyrrolidine-1-carboxylate hydrochloride], the “PI3KA_Act Ki” value is less than 18 pM.
Still for that read-out and setting: the result for `C[C@]1(N2CCc3c(-c4cnc(N)nc4)nc(N4CCOCC4)nc32)CCN(C(=O)OCC2CNC2)C1.Cl` [Example 413, azetidin-3-ylmethyl (3S)-3-[4-(2-aminopyrimidin-5-yl)-2-(morpholin-4-yl)-5,6-dihydro-7H-pyrrolo[2,3-d]pyrimidin-7-yl]-3-methylpyrrolidine-1-carboxylate hydrochloride] reads less than 18 pM; that for `CC1(OC(=O)N2CC[C@](C)(N3CCc4c(-c5cnc(N)nc5)nc(N5CCOCC5)nc43)C2)CNC1.Cl` [Example 414, 3-methylazetidin-3-yl (3S)-3-[4-(2-aminopyrimidin-5-yl)-2-(morpholin-4-yl)-5,6-dihydro-7H-pyrrolo[2,3-d]pyrimidin-7-yl]-3-methylpyrrolidine-1-carboxylate hydrochloride], 39 pM.
Still for that read-out and setting: under `C[C@]1(N2CCc3c(-c4cnc(N)nc4)nc(N4CCOCC4)nc32)CCN(C(=O)OC2CNC2)C1.Cl` [Example 415, azetidin-3-yl (3S)-3-[4-(2-aminopyrimidin-5-yl)-2-(morpholin-4-yl)-5,6-dihydro-7H-pyrrolo[2,3-d]pyrimidin-7-yl]-3-methylpyrrolidine-1-carboxylate hydrochloride] stands less than 18 pM; under `CN1CC[C@@H](OC(=O)N2CC[C@](C)(N3CCc4c(-c5cnc(N)nc5)nc(N5CCOCC5)nc43)C2)C1` [Example 416, (3R)-1-methylpyrrolidin-3-yl (3S)-3-[4-(2-aminopyrimidin-5-yl)-2-(morpholin-4-yl)-5,6-dihydro-7H-pyrrolo[2,3-d]pyrimidin-7-yl]-3-methylpyrrolidine-1-carboxylate], less than 18 pM.
In the case of `CN1CC[C@H](OC(=O)N2CC[C@](C)(N3CCc4c(-c5cnc(N)nc5)nc(N5CCOCC5)nc43)C2)C1` [Example 417, (3S)-1-methylpyrrolidin-3-yl (3S)-3-[4-(2-aminopyrimidin-5-yl)-2-(morpholin-4-yl)-5,6-dihydro-7H-pyrrolo[2,3-d]pyrimidin-7-yl]-3-methylpyrrolidine-1-carboxylate], the “PI3KA_Act Ki” value was less than 18 pM.

The values above are taken from US9260439B2, “Dihydropyrrolopyrimidine derivatives” (PFIZER INC., priority 2014, dated 2016).
